Our source for the EC50 and AC50 values is ChEMBL document CHEMBL1201862, “PubChem BioAssay data set” (2004).

The source made the active and inactive calls. Cut-off read from the data, not from the text of the source, for most assays here: actives have a measured EC50 and inactives only a lower limit.

Assay [1] can be described thus: Luminescence Cell-Based Dose Response HTS to Identify Inhibitors of 5'UTR Stem-Loop Driven Prion Protein mRNA Translation in H4 Neuroglioblastoma Cells. [Related pubchem assays: 1827 (Project Summary), 1813 (Primary HTS)]. The class given is functional.
Assay [2] can be described thus: alpha-synuclein stem-loop luciferase translation blockers – H4 neuroglioma cells, luminescence, confirmation (AID 1988). The format is functional, cell-based.
A short description of assay [3]: luciferase reporter signal suppression in cells – H4 neuroglioma cells, luminescence, dose response (AID 1990). The class given is functional, cell-based. In general terms: In a reporter assay the amount or activity of a reporter protein is the signal.
Assay [4] deals with Luciferin 4-monooxygenase (Photinus pyralis, UniProt P08659). Description: inhibition of purified Photinus pyralis luciferase – biochemical, luminescence, dose response (AID 1891).
Luciferin 4-monooxygenase, sequence (P08659 whole entry): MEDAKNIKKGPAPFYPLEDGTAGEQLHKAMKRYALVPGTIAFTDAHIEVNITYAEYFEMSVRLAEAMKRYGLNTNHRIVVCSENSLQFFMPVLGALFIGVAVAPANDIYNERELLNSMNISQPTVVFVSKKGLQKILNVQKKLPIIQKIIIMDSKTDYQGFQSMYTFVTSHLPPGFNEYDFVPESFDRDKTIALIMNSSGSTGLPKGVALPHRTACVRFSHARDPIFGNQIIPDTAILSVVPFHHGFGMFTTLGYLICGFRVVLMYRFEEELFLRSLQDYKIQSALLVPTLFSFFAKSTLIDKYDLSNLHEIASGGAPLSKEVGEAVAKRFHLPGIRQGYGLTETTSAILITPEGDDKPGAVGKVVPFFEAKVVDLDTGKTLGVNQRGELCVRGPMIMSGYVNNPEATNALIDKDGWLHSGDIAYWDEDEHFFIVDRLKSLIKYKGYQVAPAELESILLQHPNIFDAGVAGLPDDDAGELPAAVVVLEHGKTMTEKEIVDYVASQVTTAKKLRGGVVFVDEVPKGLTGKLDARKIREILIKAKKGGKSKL
A short description of assay [5]: Luminescence Cell-Based Dose Confirmation HTS to Identify Inhibitors of Platelet Dense Granule Release. [Related pubchem assays: 1663 (Primary HTS), 1678 (Summary of Project)]. The class given is functional.
Assay [6] addresses T1, RNA-binding protein pos-1 (Caenorhabditis elegans, UniProt G5EF15).
T1 sequence (G5EF15 whole entry): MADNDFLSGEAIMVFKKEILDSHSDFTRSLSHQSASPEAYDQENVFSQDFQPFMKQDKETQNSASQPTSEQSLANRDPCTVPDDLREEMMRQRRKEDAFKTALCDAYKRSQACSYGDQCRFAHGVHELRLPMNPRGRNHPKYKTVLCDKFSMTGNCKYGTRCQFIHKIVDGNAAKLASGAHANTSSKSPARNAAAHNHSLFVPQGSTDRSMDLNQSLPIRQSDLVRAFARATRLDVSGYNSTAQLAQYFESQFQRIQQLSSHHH
Description: disruptors of C. elegans POS-1 RNA interaction – biochemical, fluorescence polarization, dose response (AID 1964). (Fluorescence polarisation rises when a labelled molecule tumbles more slowly, as on binding a larger partner.)

Assay [7] deals with T2, Zinc finger protein mex-5 (Caenorhabditis elegans, UniProt Q9XUB2).
T2 sequence (Q9XUB2 whole entry): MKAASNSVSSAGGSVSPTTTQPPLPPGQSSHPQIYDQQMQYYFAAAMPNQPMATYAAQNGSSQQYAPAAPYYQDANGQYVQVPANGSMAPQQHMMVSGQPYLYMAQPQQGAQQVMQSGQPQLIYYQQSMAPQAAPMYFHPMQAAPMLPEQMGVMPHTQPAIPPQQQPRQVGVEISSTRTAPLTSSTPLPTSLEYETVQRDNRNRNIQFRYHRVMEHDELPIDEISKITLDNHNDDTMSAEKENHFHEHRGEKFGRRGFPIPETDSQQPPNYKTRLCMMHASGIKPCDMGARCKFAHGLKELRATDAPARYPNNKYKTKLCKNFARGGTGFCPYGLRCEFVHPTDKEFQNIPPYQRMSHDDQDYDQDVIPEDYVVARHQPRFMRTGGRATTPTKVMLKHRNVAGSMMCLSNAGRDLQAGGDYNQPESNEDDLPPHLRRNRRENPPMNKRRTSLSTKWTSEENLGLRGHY
As to the kind of experiment: potency of MEX-5 RNA-binding blockers – biochemical, C. elegans, fluorescence polarization, dose response (AID 1960).

The nature of assay [8]: NIH-3T3 fibroblast cytotoxicity, dose response, cytotoxicity control, cell-based, fluorescence, Alamar Blue, secondary assay (AID 2327).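 Note: NIH-3T3 mouse fibroblasts cultured with fluconazole at 8 µg/mL.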 The class given is functional.
A short description of assay [9]: fluconazole-exposed Candida albicans growth modulators – fluorescence, retest, confirmation (AID 2467). The format is functional, cell-based.
Another assay deals with Streptococcus. Description: GAS UMAA2166 growth inhibition – luminescence, BacTiterGlo, counter-screen for streptokinase expression inhibitor project, dose response (AID 1915).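 Note: potency for reduction of bacterial viability or growth.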 The format is functional, organism-based.
Assay [10] can be described thus: Trypanosoma cruzi growth suppression in host cells – NIH3T3 host cells, beta-gal luminescence, confirmation (AID 2044).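 Note: intracellular parasites grown in NIH/3T3 mouse fibroblasts as host cells; luminescent beta-galactosidase reporter signal from transgenic T. cruzi replicating inside host cells; inhibitors lower the luminescence signal.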 The class given is functional, cell-based.
In assay [11] the test system is Streptococcus sp. 'group A'. Description: Streptococcus pyogenes SK(-)GAS viability under kanamycin – luminescence, BacTiterGlo, confirmation, counter-screen for streptokinase expression inhibitor project, dose response (AID 1900). The class given is functional, organism-based. On the technique in general: Counterscreens check selectivity or assay interference.
Assay [12] can be described thus: NIH3T3 cell viability loss – ATP luminescence, mouse fibroblasts, counter-screen, dose response (AID 2010).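 Note: cells exposed to compound for about 90 hours before reading.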 The class given is functional, cell-based.
The next assay relates to INS1. As to the kind of experiment: INS-1E survival protection against cytokine death – cell-based, luminescence, retest, dose response (AID 449756).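 Note: cell death triggered by IL-1 beta plus TNF-alpha plus IFN-gamma mixture; protective hits raise ATP signal compared with cytokine alone wells.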 The class given is functional. Conditions: Rattus norvegicus.

For the molecule `O=C(Cn1cc2c(n1)CCCC2)NCc1cccc(Cl)c1`, the EC50 in [1], in [2] and in assay [3] was > 120 µM (not active) each time.
With `COc1ccccc1C(=O)NCCC(=O)Nc1ncccc1O`, the EC50 in assay [4] and in assay [5] was > 112 µM (not active) each time.
For the molecule `CCc1ccc(/C=C2\Oc3c(ccc(O)c3CN3CCN(CCO)CC3)C2=O)cc1`, the results for the EC50 in assay [6] and in assay [7] were 37.1 µM (active) and 73.3 µM (active), respectively.
As for `Cc1ccc(NC(=O)C2C(C(=O)O)C3C=CC2C32CC2)cc1` (stereo unspecified), the values for the EC50 in assay [8] and in assay [9] were 46.2 µM (active) and > 38 µM (not active), respectively.
For `Cn1cc(S(=O)(=O)N2CCOCC2)cc1C(=O)Nc1ccc(Cl)cc1`, the EC50 in assay [4] and in [5] was > 112 µM (not active) in each case.
Turning to `COc1ccc(/C=C/CN2CCCC(CO)(Cc3cccc(Cl)c3)C2)cc1` (stereo unspecified), the EC50 in assay [4] and in assay [5] was > 112 µM (not active) throughout.
With `CCCCN(C)S(=O)(=O)c1ccc(C(=O)Nc2nnc(-c3cccs3)o2)cc1`, the EC50 with Streptococcus was 3.65 µM (active); in assay [8] it was > 150 µM (inactive); in [10], 1.09 µM (active); in [9] it was 0.861 µM (active); in assay [11], 0.68 µM (active); in assay [12] it was 8 µM (active).
Regarding `COc1ccccc1N1CCN(C(=O)c2cc(-c3ccccc3O)on2)CC1`, the EC50 in assay [4] and in [5] was > 112 µM (not active) in each case.
On to `CCCCCCN1C(=O)/C(=C/Nc2ccccc2N2CCOCC2)C(=O)NC1=S`, for which the EC50 in assay [6] is > 300 µM (not active); in assay [7] it was > 300 µM (inconclusive).
For `CCOC(=O)c1ccc2nc(NC(=O)c3cccs3)sc2c1`, the values for the EC50 in assay [4] and in assay [5] were 0.729 µM (active) and 10.7 µM (active), respectively.
As for `CCOC(=O)C1=C(C)OC(N)=C(C#N)C1C1CCCCC1` (stereo unspecified), the 50% effective concentration (EC50) in assay [4] and in assay [5] was > 112 µM (not active) each time.
As for `CC1CCCCN1Cc1nc2c(c(=O)n(C)c(=O)n2C)n1CCc1ccccc1` (stereo unspecified), the EC50 in assay [4] and in [5] was > 112 µM (not active) throughout.
With `COc1ccc(CCNCc2ccc(OCC(=O)N3CCCCC3)c(OC)c2)cc1OC`, the EC50 in [10] was 0.133 µM (active); in assay [4], > 112 µM (not active); in [5] it was 16.3 µM (active); in assay [12] it was > 60 µM (inconclusive).
`O=C(O)CCc1ccc(-c2ccccc2)n1-c1cccc(C(=O)O)c1`: the EC50 in assay [6] and in assay [7] was > 300 µM (not active) each time.
For the molecule `O=C(O)c1ccc(COc2cccc(CO)c2)cc1`, the half-maximal effective concentration (EC50) in assay [4] was 44.4 µM (active); in assay [5], 4.38 µM (active).
Take `COc1ccc(-c2cn3c([n+]2-c2ccccc2)CCCCC3)cc1`: the values for the EC50 in assay [8] and in [9] were > 150 µM (inactive) and 2.53 µM (active), respectively. The half-maximal activity concentration (AC50) in the assay with INS1 is 2.58 µM (active).
Take `CCN1C(=C(C#N)C#N)C=Cc2ccccc21`: the half-maximal effective concentration (EC50) in assay [6] is > 300 µM (inconclusive); in assay [7], > 300 µM (not active).
Regarding `Cc1ccc(C)c(N(CC(=O)Nc2ccccc2C(=O)NCc2ccco2)S(=O)(=O)c2ccccc2)c1`, the figures for the EC50 in assay [1], in [2] and in assay [3] were > 120 µM (not active), > 120 µM (not active) and 15.6 µM (active), respectively.
As for `CC/C(NCCCN(C)C)=C1/C(=O)NC(=O)N(c2ccc(OC)cc2)C1=O`, the EC50 in [6] and in [7] was > 300 µM (not active) throughout.
For the molecule `COCCCNc1nc(N)c([N+](=O)[O-])c(NCc2ccccc2)n1`, the EC50 was > 120 µM (not active) in [1], 14.2 µM (active) in assay [2] and 19.4 µM (active) in assay [3].
Regarding `Cc1ccc(N(C)S(=O)(=O)c2c(C)noc2/C=C/N(C)C)cc1`, the EC50 in assay [6] and in assay [7] was > 300 µM (not active) in each case.
Regarding `FC(F)(F)c1cc(C(F)(F)F)n2nc(-c3sccc3-n3cccc3)cc2n1`, the EC50 in assay [6] and in assay [7] was > 300 µM (not active) in each case.
Consider `Cc1cc(NC(=O)/C=C/c2cccc(Cl)c2)n(-c2nc3ccccc3[nH]2)n1`, for which the EC50 is > 112 µM (not active) in assay [4] and 49.7 µM (active) in assay [5].
The corresponding values for `Cc1cc(N)n2nc(-c3ccc(C(C)(C)C)cc3)cc2n1` are 0.401 µM (active) and 2.35 µM (active).
The corresponding values for `O=C(NCc1ccco1)c1ccc(-c2ccccc2Cl)o1` are > 112 µM (not active) and > 112 µM (not active).
Regarding `CCc1nc(SCC(=O)Nc2cccc(C(F)(F)F)c2)c2c(=O)n(C)c(=O)n(C)c2n1`, the EC50 in assay [1] was 16.4 µM (active); in assay [2], 15.9 µM (active); in assay [3], 19.1 µM (active).
The corresponding values for `Nc1nc(NCCc2ccccc2)nc(NCCO)c1[N+](=O)[O-]` are > 120 µM (not active), 39.1 µM (active) and 19.1 µM (active).
Take `C/C(=N/N=C(\C)c1ccccc1O)c1ccccc1O`: the values for the EC50 in [6] and in [7] were > 300 µM (not active) and > 300 µM (inconclusive), respectively.
For the molecule `Cc1cccc(NC(=S)N/N=C(\c2ccccc2)C(C)C)c1`, the results for the EC50 in assay [8] and in assay [9] were > 150 µM (inconclusive) and 3.98 µM (active), respectively.
In the case of `O=C(Cn1cncn1)N/N=C/c1c2ccccc2cc2ccccc12`, the EC50 in assay [6] and in assay [7] was > 300 µM (not active) each time.
In the case of `Cc1nc(O)nc(O)c1/C=N/NC(=O)CCNC(=O)OC(C)(C)C`, the EC50 in assay [4] and in assay [5] was > 112 µM (not active) throughout.
For `CCOc1cccc(-c2c(C(=O)N/N=C/c3ccc(C)s3)nnn2-c2nonc2N)c1`, the EC50 in [4] and in [5] was > 112 µM (not active) throughout.

In general, EC50 refers to the concentration giving half of the maximal effect. The term AC50 denotes the concentration giving half of the maximal activity seen.
